Assay results: the NIST ThermoML archive (doi:10.1016/j.fluid.2005.03.028)

Experiment: excess molar enthalpy (molar enthalpy of mixing); xn = mol fraction of the nth substance listed
Settings: 303.15 K, 101.3 kPa, Liquid

Cc1cccc(C)n1 [2,6-dimethylpyridine] + CCCCCCCC
Settings	excess molar enthalpy [kcal/mol]
x1 = 0.108	0.12
x1 = 0.199	0.172
x1 = 0.202	0.182
x1 = 0.346	0.233
x1 = 0.413	0.246
x1 = 0.506	0.251
x1 = 0.597	0.246
x1 = 0.698	0.217
x1 = 0.708	0.208

Cc1cncc(C)c1 [3,5-dimethylpyridine] + CCCCCCCC
Settings	excess molar enthalpy [kcal/mol]
x1 = 0.1056	0.133
x1 = 0.2504	0.24
x1 = 0.3971	0.294
x1 = 0.4266	0.301
x1 = 0.4971	0.304
x1 = 0.5313	0.305
x1 = 0.5417	0.303
x1 = 0.6032	0.293
x1 = 0.7289	0.237
x1 = 0.8127	0.184
x1 = 0.914	0.0915

Cc1cccc(C)n1 [2,6-dimethylpyridine] + CCCCCC
Settings	excess molar enthalpy [kcal/mol]
x1 = 0.1061	0.1
x1 = 0.2206	0.171
x1 = 0.2931	0.202
x1 = 0.3822	0.215
x1 = 0.4338	0.221
x1 = 0.4341	0.22
x1 = 0.4507	0.226
x1 = 0.5516	0.223
x1 = 0.6172	0.215
x1 = 0.7034	0.191
x1 = 0.7949	0.141
x1 = 0.884	0.0844

Cc1cccc(C)n1 [2,6-dimethylpyridine] + CCCCCCC
Settings	excess molar enthalpy [kcal/mol]
x1 = 0.1137	0.114
x1 = 0.1939	0.16
x1 = 0.26	0.194
x1 = 0.313	0.211
x1 = 0.318	0.216
x1 = 0.365	0.226
x1 = 0.4264	0.237
x1 = 0.46	0.241
x1 = 0.5077	0.242
x1 = 0.58	0.227
x1 = 0.7064	0.202
x1 = 0.7851	0.165
x1 = 0.857	0.123

Cc1cncc(C)c1 [3,5-dimethylpyridine] + CCCCCCC
Settings	excess molar enthalpy [kcal/mol]
x1 = 0.0712	0.0951
x1 = 0.2287	0.217
x1 = 0.2961	0.258
x1 = 0.3799	0.281
x1 = 0.4475	0.296
x1 = 0.497	0.293
x1 = 0.5013	0.294
x1 = 0.5962	0.283
x1 = 0.6871	0.249
x1 = 0.7428	0.219
x1 = 0.85	0.137

Cc1cncc(C)c1 [3,5-dimethylpyridine] + CCCCCC
Settings	excess molar enthalpy [kcal/mol]
x1 = 0.1064	0.137
x1 = 0.1889	0.201
x1 = 0.314	0.259
x1 = 0.434	0.275
x1 = 0.5119	0.278
x1 = 0.6092	0.26
x1 = 0.7259	0.214
x1 = 0.775	0.191
x1 = 0.8934	0.0978
x1 = 0.9495	0.0492
